{"source": "patent US11332485B2", "about": "“Penicillin-binding protein inhibitors” (priority 2017, dated 2022)", "key": {"[1]": {"target": "T1, PBP3 from Escherichia coli (Escherichia coli, UniProt P0AD68)", "T1 construct": "made in house", "T1 sequence (P0AD68 1-577)": "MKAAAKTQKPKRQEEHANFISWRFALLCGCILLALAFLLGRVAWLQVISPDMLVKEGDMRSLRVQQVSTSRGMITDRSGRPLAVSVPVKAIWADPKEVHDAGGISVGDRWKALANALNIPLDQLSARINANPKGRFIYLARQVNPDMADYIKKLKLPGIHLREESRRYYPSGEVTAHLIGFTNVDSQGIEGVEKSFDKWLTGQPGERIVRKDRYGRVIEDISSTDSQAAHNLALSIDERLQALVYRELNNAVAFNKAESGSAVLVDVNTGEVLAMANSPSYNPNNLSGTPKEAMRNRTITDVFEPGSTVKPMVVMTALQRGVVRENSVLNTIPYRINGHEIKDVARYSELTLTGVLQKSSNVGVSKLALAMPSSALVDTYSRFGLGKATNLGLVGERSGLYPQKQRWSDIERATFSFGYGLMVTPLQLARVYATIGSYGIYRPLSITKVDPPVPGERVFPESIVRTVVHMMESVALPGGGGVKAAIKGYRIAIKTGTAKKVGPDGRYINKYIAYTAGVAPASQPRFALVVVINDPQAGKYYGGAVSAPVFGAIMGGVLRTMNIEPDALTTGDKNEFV", "experiment": "Fluorescence polarization competition binding assay with Bocillin-FL", "how_it_was_run": "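Fluorescence polarization competition assay with Bocillin-FL at 0.1 μM final and purified E. coli PBP3 at 1.5 μM final in 50 mM Hepes pH 8.0, 300 mM NaCl, 5% glycerol. Inhibitor preincubated with PBP3 for 30 min before probe addition; FP then read continuously for 60 min. Potency reported in binned categories.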"}, "[2]": {"target": "T1, PBP3 from Escherichia coli", "experiment": "Competition binding assay using Bodipy-FL boronic acid probe (Example 95)", "conditions": "PBP3 3 μM, read-out: E. coli K12 PBP3 Potency", "protocol": "PBP3 from Escherichia coli was cloned and purified as described previously (King, D. T, et al., ACS Infectious Diseases 2015, 1, 175-184). To establish assay conditions for competition binding, an enzyme titration/saturation binding experiment was performed. […] FP was measured immediately upon addition of PBP3 (Ex, Em), using a Cytation3 (BioTek) microplate reader and measured continuously for 60 minutes. […] The competition binding assay was validated using the beta-lactam ampicillin, with Bocillin-FL at a final concentration of 0.1 μM, PBP3 at a final concentration of 1.5 μM and concentrations of ampicillin from 0-1000 μM. […] Binding assays for boronic acid PBP inhibitors were performed in an identical fashion. Representative results are shown in Table 3, where A represents a potency of >500 μM, B represents a potency between 30 μM and 500 μM inclusive, and C represents a potency of <30 μM. NT=Not Tested.\nThe method described in Example II was adapted to use a Bodipy-labeled boronic acid PBP inhibitor (Example 13 or Example 95) to assess PBP3 potency of boronic acid PBP inhibitors. The method is identical to that described in Example II for the Bocillin-FL competition binding assay, with the following exceptions: PBP3 from Escherichia coli is used at a final concentration of 3 μM. […]"}, "[3]": {"target": "T2, PBP1b from Escherichia coli (Escherichia coli, UniProt P02919)", "T2 construct": "made in house", "T2 sequence (P02919 whole entry)": "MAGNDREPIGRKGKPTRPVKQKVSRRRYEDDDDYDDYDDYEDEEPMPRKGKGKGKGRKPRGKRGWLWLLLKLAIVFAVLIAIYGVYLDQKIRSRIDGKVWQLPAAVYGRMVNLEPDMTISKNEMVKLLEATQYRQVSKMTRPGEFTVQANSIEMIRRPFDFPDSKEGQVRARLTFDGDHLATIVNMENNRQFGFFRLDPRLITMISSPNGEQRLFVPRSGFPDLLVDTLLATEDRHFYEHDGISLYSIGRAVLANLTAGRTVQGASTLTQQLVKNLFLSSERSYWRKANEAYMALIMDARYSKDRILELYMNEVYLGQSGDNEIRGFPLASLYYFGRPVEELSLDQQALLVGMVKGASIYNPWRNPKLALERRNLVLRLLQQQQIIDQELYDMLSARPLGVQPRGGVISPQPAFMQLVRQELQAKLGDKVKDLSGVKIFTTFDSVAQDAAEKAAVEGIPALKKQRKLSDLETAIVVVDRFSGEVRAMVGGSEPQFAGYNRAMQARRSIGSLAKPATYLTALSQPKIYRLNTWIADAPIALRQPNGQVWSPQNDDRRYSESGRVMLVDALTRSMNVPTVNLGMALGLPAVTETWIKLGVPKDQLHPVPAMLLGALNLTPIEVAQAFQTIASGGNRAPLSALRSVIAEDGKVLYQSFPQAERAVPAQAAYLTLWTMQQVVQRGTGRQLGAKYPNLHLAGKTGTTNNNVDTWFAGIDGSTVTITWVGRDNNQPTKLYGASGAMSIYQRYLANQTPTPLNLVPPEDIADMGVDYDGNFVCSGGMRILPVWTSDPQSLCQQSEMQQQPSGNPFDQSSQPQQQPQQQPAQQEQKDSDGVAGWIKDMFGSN", "experiment": "Radioligand competition binding assay with 14C-labeled boronic acid probe (Example 96)", "conditions": "14C-labeled probe 96 at 20 μM, PBP 0.1 μM; read-out: E. coli K12 PBP1b EC50", "how_it_was_run": "(§1)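 Purified PBP (0.1 μM) in 20 mM Tris pH 7.5, 500 mM NaCl, 0.1% Triton X-100 preincubated 60 min with inhibitor, then 60 min with 20 μM 14C-boronic acid probe. Bound probe recovered by spin desalting and counted by scintillation; EC50 is the concentration halving probe binding.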"}, "[4]": {"target": "T3, PBP1a from Escherichia coli (Escherichia coli, UniProt P02918)", "T3 construct": "made in house", "T3 sequence (P02918 whole entry)": "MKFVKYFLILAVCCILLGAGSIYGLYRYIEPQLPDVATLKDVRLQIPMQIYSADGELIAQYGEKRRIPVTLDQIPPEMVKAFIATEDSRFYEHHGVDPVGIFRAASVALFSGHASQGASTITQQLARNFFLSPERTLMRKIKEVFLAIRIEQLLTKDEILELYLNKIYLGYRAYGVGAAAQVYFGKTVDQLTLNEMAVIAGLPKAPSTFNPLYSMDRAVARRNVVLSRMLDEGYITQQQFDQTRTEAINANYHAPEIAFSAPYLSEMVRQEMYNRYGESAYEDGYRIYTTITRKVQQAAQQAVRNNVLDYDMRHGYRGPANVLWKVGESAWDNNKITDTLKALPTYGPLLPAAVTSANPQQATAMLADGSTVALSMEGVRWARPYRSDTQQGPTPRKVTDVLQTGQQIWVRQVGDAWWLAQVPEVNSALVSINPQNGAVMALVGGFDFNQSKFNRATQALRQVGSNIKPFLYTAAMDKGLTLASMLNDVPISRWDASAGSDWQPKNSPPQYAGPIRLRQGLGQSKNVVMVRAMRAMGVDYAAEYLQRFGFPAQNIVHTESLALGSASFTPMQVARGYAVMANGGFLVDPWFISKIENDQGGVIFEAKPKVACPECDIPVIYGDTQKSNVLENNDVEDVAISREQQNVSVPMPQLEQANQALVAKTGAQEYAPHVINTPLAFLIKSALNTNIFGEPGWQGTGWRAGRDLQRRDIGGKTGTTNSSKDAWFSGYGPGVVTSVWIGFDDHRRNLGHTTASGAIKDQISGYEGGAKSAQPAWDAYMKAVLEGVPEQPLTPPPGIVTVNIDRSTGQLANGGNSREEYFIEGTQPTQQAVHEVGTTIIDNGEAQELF", "experiment": "Radioligand competition binding assay with 14C-labeled boronic acid probe (Example 96)", "conditions": "14C-labeled probe 96 at 20 μM, PBP 0.1 μM; read-out: E. coli K12 PBP1a EC50", "how_it_was_run": "as §1"}}}
{"smiles": "CCN1CCN(C(=O)NC(C(=O)N[C@H]2Cc3cccc(C(=O)O)c3OB2O)c2csc(N)n2)C(=O)C1=O", "note": "(stereo partly drawn) [Example 12, (3R)-3-(2-(2-aminothiazol-4-yl)-2-(4-ethyl-2,3-dioxopiperazine-1-carboxamido)acetamido)-2-hydroxy-3,4-dihydro-2H-benzo[e][1,2]oxaborinine-8-carboxylic acid]", "values": [{"measurement": "EC50", "setting": "[1]", "result": "< 30", "unit": "µM"}, {"measurement": "EC50", "setting": "[2]", "result": "< 10", "unit": "µM"}, {"measurement": "EC50", "setting": "[3]", "result": "< 10", "unit": "µM"}, {"measurement": "EC50", "setting": "[4]", "result": "< 10", "unit": "µM"}]}
